Test results as given in patent US11339124B2, “3-(benzylamino)-4-(cyclohexylamino)-n-(2-(piperazin-1-yl)ethyl)benzenesulfonamide derivatives and related ferrostatin-1 analogues as cell death inhibitors for treating e.g. stroke” (VIB VZW, priority 2018, dated 2022).

Assay: In vivo pharmacokinetics, single iv administration to male Wistar rats (blood concentration)
Design: species or system rat
Settings: 5 mg/kg iv
Protocol: In order to estimate how these in vitro ADME parameters correlate to an in vivo setting, compound 39 was selected for a single intravenous (iv) administration to three male Wistar rats at a dose of 5 mg/kg. Blood samples were obtained at various time points. (0.083, 0.25, 0.5, 1, 2, 4, and 24 h) The concentration of 39 was determined using UPLC analysis coupled with tandem quadrupole mass spectrometry. […] Only in 1 sample a concentration of […] was determined 5 minutes after dosing.
Male Wistar rats (BW˜250 g; Janvier France) were housed individually and randomly allocated to groups of 3 animals each based on body weight. The animals were fasted overnight until 4 hours after dosing. Drinking water remained available ad libitum.
The test compound were kept at 4° C. until formulation. The compound was formulated in PEG200 at 10 mg/ml. The test formulation was prepared by LMPH and stored at room temperature.
Blood was collected from sublingual vein using capillary tubes under isoflurane anaesthesia. The blood was dropped (15 μL) on Whatman® FTA® DMPK B cards, dried at room temperature for at least 2 hours and further processed for analysis. A 6 mm disk was punched from the blood spot center, extracted in 75:25 ACN:H2O containing tolbutamide as internal standard (IS). […] The optimal DBS protocol (FTA DMPK-A or B card, extraction solvent) was determined in a preliminary experiment.

For `Cl.O=S(=O)(NCCN1CCNCC1)c1ccc(NC2CCCCC2)c(NCc2ccccc2)c1` [Compound 39, 3-(benzylamino)-4-(cyclohexylamino)-N-(2-(piperazin-1-yl)ethyl)benzenesulfonamide Hydrochloride], which “Plasma concentration (below detection limit in nearly all samples)” value (0.083-24 h) is on record?
Its value is < 53.1 ng/mL.

What about the Plasma concentration in 1 sample (5 minutes after dosing) of the same compound?
Its Plasma concentration in 1 sample is 19.6 ng/mL.
